Columns and labels:
AHR [1] = biological target: T1, AHR (Homo sapiens, UniProt P35869); assay: In vitro assay 2: agonism in human cell line (transactivation assay, U87 cells, DRE firefly luciferase reporter); type: cell-based; set-up: host or cells: U87 glioblastoma cells, stably transfected with DRE firefly luciferase and renilla reporter constructs; settings: no kynurenic acid, 20 hours, read-out: Assay 2: AHR-luc Hum Agonism IC50
T1 sequence (P35869 11-848): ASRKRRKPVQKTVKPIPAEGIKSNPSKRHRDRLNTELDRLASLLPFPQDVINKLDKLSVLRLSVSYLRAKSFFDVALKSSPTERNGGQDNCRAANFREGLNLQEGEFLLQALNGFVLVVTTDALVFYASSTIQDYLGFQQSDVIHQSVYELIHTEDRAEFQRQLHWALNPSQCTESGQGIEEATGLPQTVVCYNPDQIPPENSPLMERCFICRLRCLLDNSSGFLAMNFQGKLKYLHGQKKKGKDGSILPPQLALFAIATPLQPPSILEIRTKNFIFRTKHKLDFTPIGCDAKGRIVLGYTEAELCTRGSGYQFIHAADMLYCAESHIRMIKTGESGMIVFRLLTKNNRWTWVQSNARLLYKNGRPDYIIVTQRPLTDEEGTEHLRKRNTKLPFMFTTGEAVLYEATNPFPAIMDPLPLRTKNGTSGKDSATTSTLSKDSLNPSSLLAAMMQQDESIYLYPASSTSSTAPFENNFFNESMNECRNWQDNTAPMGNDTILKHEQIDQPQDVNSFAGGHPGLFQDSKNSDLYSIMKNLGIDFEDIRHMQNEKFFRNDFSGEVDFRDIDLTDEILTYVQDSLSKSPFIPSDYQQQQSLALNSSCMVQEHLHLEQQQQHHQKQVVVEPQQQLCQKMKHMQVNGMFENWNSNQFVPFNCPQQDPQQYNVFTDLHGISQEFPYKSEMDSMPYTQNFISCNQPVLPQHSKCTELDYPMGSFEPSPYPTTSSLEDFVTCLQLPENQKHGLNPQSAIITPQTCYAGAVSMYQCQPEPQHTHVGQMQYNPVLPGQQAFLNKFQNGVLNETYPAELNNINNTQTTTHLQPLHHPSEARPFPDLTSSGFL
Outline: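 Agonist readout: DRE firefly luciferase, with constitutive renilla reporter, in stably transfected U87 cells expressing AHR endogenously. Normalization used positive control (300 uM kynurenic acid) and negative control.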

AHR [2] = biological target: T1, AHR; assay: In vitro assay 1: antagonism in human cell line (transactivation assay, U87 cells prestimulated with kynurenic acid, DRE firefly luciferase reporter); type: cell-based; set-up: host or cells: U87 glioblastoma cells, stably transfected with DRE firefly luciferase and renilla reporter constructs; settings: 150 uM kynurenic acid, 20 hours, read-out: Assay 1: AHR-luc Hum Antagonism IC50
Outline: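 Antagonism measured after kynurenic acid prestimulation in U87 cells that express AHR endogenously and stably harbor a firefly luciferase gene under DRE control plus a constitutive renilla construct. Positive and negative controls served for normalization.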

| SMILES | IC50 (AHR [1]) | IC50 (AHR [2]) |
| --- | --- | --- |
| O=C(N[C@H]1COC[C@@H]1O)c1cc(-c2ccc(Cl)cc2)nn(-c2cncc(F)c2)c1=O (single isomer, unassigned; enantiomer 2) [Example 156, 6-(4-Chlorophenyl)-2-(5-fluoropyridin-3-yl)-N-[(trans)-4-hydroxytetrahydrofuran-3-yl]-3-oxo-2,3-dihydropyridazine-4-carboxamide, Enantiomer 2] | > 20 µM | 25 nM |
| CCC(CO)NC(=O)c1cc(-c2ccc(C)cc2)nn(-c2cnn(C)c2)c1=O (stereo not shown) [Example 4, N-(1-Hydroxybutan-2-yl)-6-(4-methylphenyl)-2-(1-methyl-1H-pyrazol-4-yl)-3-oxo-2,3-dihydropyridazine-4-carboxamide] | > 20 µM | 9.52 nM |
| Cc1ccc(-c2cc(C(=O)N[C@H](C)CO)c(=O)n(-c3cnn(C)c3)n2)cc1 [Example 9, N-[(2R)-1-Hydroxypropan-2-yl]-6-(4-methylphenyl)-2-(1-methyl-1H-pyrazol-4-yl)-3-oxo-2,3-dihydropyridazine-4-carboxamide] | > 20 µM | 164 nM |
| Cn1cc(-n2nc(-c3ccc(Cl)cc3)cc(C(=O)NC[C@@H](O)CO)c2=O)cn1 [Example 28, 6-(4-Chlorophenyl)-N-[(2R)-2,3-dihydroxypropyl]-2-(1-methyl-1H-pyrazol-4-yl)-3-oxo-2,3-dihydropyridazine-4-carboxamide] | > 20 µM | 293 nM |
| COC[C@@H](CO)NC(=O)c1cc(-c2ccc(Cl)cc2)nn(-c2cnn(C)c2)c1=O [Example 30, 6-(4-Chlorophenyl)-N-[(2R)-1-hydroxy-3-methoxypropan-2-yl]-2-(1-methyl-1H-pyrazol-4-yl)-3-oxo-2,3-dihydropyridazine-4-carboxamide] | > 20 µM | 60.8 nM |
| Cn1cc(-n2nc(-c3ccc(Cl)cc3)cc(C(=O)NC(CO)CO)c2=O)cn1 [Example 31, 6-(4-Chlorophenyl)-N-(1,3-dihydroxypropan-2-yl)-2-(1-methyl-1H-pyrazol-4-yl)-3-oxo-2,3-dihydropyridazine-4-carboxamide] | > 20 µM | 244 nM |
| Cn1cc(-n2nc(-c3ccc(Cl)cc3)cc(C(=O)N[C@@H](CO)C(F)(F)F)c2=O)cn1 [Example 34, (−)-6-(4-Chlorophenyl)-2-(1-methyl-1H-pyrazol-4-yl)-3-oxo-N-[(2S)-1,1,1-trifluoro-3-hydroxypropan-2-yl]-2,3-dihydropyridazine-4-carboxamide] | > 20 µM | 130 nM |
| O=C(NC[C@H](O)C(F)(F)F)c1cc(-c2ccc(Cl)cc2)nn(-c2cnn(C3CCC3)c2)c1=O [Example 40, 6-(4-Chlorophenyl)-2-(1-cyclobutyl-1H-pyrazol-4-yl)-3-oxo-N-[(2S)-3,3,3-trifluoro-2-hydroxypropyl]-2,3-dihydropyridazine-4-carboxamide] | > 20 µM | 1100 nM |
| O=C(N[C@H](CO)C(F)(F)F)c1cc(-c2ccc(Cl)cc2)nn(-c2cnn(C3CCC3)c2)c1=O [Example 41, 6-(4-Chlorophenyl)-2-(1-cyclobutyl-1H-pyrazol-4-yl)-3-oxo-N-[(2R)-1,1,1-trifluoro-3-hydroxypropan-2-yl]-2,3-dihydropyridazine-4-carboxamide] | > 20 µM | 1650 nM |

Results, then the compound that gave them:

| IC50 (AHR [1]) | IC50 (AHR [2]) | SMILES |
| --- | --- | --- |
| > 20 µM | 148 nM | O=C(N[C@H]1CCCC(F)(F)[C@@H]1O)c1cc(-c2ccc(OC(F)(F)F)cc2)nn(-c2cccnc2)c1=O (single isomer, unassigned; enantiomer 1) [Example 141, N-[(trans)-3,3-Difluoro-2-hydroxycyclohexyl]-3-oxo-2-(pyridin-3-yl)-6-[4-(trifluoromethoxy)phenyl]-2,3-dihydropyridazine-4-carboxamide, Enantiomer 1] |
| > 20 µM | 31.4 nM | O=C(N[C@H]1CCCC(F)(F)[C@@H]1O)c1cc(-c2ccc(Cl)cc2)nn(-c2cccnc2)c1=O (single isomer, unassigned; enantiomer 1) [Example 144, 6-(4-Chlorophenyl)-N-[(trans)-3,3-difluoro-2-hydroxycyclohexyl]-3-oxo-2-(pyridin-3-yl)-2,3-dihydropyridazine-4-carboxamide, Enantiomer 1] |
| > 20 µM | 90.5 nM | O=C(N[C@H]1COC[C@@H]1O)c1cc(-c2ccc(Cl)cc2)nn(-c2cncc(F)c2)c1=O (single isomer, unassigned; enantiomer 1) [Example 155, 6-(4-Chlorophenyl)-2-(5-fluoropyridin-3-yl)-N-[(trans)-4-hydroxytetrahydrofuran-3-yl]-3-oxo-2,3-dihydropyridazine-4-carboxamide, Enantiomer 1] |
| > 20 µM | 103 nM | O=C(N[C@H]1COC[C@@H]1O)c1cc(-c2ccc(OC(F)(F)F)cc2)nn(-c2cccnc2)c1=O (single isomer, unassigned; enantiomer 1) [Example 161, N-[(trans)-4-Hydroxytetrahydrofuran-3-yl]-3-oxo-2-(pyridin-3-yl)-6-[4-(trifluoromethoxy)phenyl]-2,3-dihydropyridazine-4-carboxamide, Enantiomer 1] |
| > 20 µM | 31.7 nM | O=C(N[C@H]1COC[C@@H]1O)c1cc(-c2ccc(Cl)cc2)nn(-c2cccnc2)c1=O (single isomer, unassigned; enantiomer 1) [Example 169, 6-(4-Chlorophenyl)-N-[(trans)-4-hydroxytetrahydrofuran-3-yl]-3-oxo-2-(pyridin-3-yl)-2,3-dihydropyridazine-4-carboxamide, Enantiomer 1] |
| > 20 µM | 7.48 nM | Cn1cc(-n2nc(-c3ccc(OC(F)(F)F)cc3)cc(C(=O)N[C@@H]3COC[C@@H]3O)c2=O)cn1 (single isomer, unassigned; enantiomer 2) [Example 57, N-[(cis)-4-Hydroxytetrahydrofuran-3-yl]-2-(1-methyl-1H-pyrazol-4-yl)-3-oxo-6-[4-(trifluoromethoxy)phenyl]-2,3-dihydropyridazine-4-carboxamide, Enantiomer 2] |
| > 20 µM | 25.5 nM | Cn1cc(-n2nc(-c3ccc(OC(F)(F)F)cc3)cc(C(=O)N[C@@H]3COC[C@H]3O)c2=O)cn1 (single isomer, unassigned; enantiomer 2) [Example 65, N-[(trans)-4-Hydroxytetrahydrofuran-3-yl]-2-(1-methyl-1H-pyrazol-4-yl)-3-oxo-6-[4-(trifluoromethoxy)phenyl]-2,3-dihydropyridazine-4-carboxamide, Enantiomer 2] |
| > 20 µM | 5.7 nM | CC(C)(O)C(NC(=O)c1cc(-c2ccc(Cl)cc2)nn(-c2cccnc2)c1=O)C(F)(F)F (single isomer, unassigned; enantiomer 2) [Example 123, 6-(4-Chlorophenyl)-3-oxo-2-(pyridin-3-yl)-N-(1,1,1-trifluoro-3-hydroxy-3-methylbutan-2-yl)-2,3-dihydropyridazine-4-carboxamide, Enantiomer 2] |
| > 20 µM | 4.23 nM | CC(C)(O)C(NC(=O)c1cc(-c2ccc(OC(F)(F)F)cc2)nn(-c2cccnc2)c1=O)C(F)(F)F (single isomer, unassigned; enantiomer 2) [Example 137, 3-Oxo-2-(pyridin-3-yl)-N-[1,1,1-trifluoro-3-hydroxy-3-methylbutan-2-yl]-6-[4-(trifluoromethoxy)phenyl]-2,3-dihydropyridazine-4-carboxamide, Enantiomer 2] |
| > 20 µM | 8.32 nM | O=C(N[C@H]1CCCC(F)(F)[C@@H]1O)c1cc(-c2ccc(OC(F)(F)F)cc2)nn(-c2cccnc2)c1=O (single isomer, unassigned; enantiomer 2) [Example 142, N-[(trans)-3,3-Difluoro-2-hydroxycyclohexyl]-3-oxo-2-(pyridin-3-yl)-6-[4-(trifluoromethoxy)phenyl]-2,3-dihydropyridazine-4-carboxamide, Enantiomer 2] |
| > 20 µM | 6.9 nM | O=C(N[C@H]1CCCC(F)(F)[C@@H]1O)c1cc(-c2ccc(Cl)cc2)nn(-c2cccnc2)c1=O (single isomer, unassigned; enantiomer 2) [Example 145, 6-(4-Chlorophenyl)-N-[(trans)-3,3-difluoro-2-hydroxycyclohexyl]-3-oxo-2-(pyridin-3-yl)-2,3-dihydropyridazine-4-carboxamide, Enantiomer 2] |
